In patent US6723364B1, “Fog treatment method using a liquid composition for treating fruits and vegetables and implementing device” (Xeda International, priority 1998, dated 2004):

System: potato tubers
Assay: Sprouting-inhibiting treatment of potato tubers by thermal fogging
Type: in vivo
Settings: after 5 months; cold room 8 to 9° C.; 45 g/tonne then 15 g/tonne every 20 days by thermal fogging
Method: The effectiveness of eugenol and of isoeugenol in the sprouting-inhibiting treatment of potato tubers was evaluated and compared with that of other terpenes.
The following compositions were used in the case of eucalyptol, eugenol, isoeugenol, limonene, safrole and terpineol:
60% by weight of terpene;
7% by weight of a nonionic emulsifier;
33% by weight of butyl acetate.
In the case of L-carvone, the following composition was employed:
30% by weight of L-carvone;
10% by weight of ethanol;
5% by weight of nonionic emulsifier;
35% by weight of propylene glycol.
Isopropyl chlorophenylcarbamate (CIPC) is a compound used in the art as sprouting inhibitor for potato tubers. Its activity was compared with that of eugenol and of isoeugenol.
The composition based on isopropyl chloro-phenylcarbamate has the following formulation: […]
20% by weight of isopropyl chlorophenyl-carbamate;
50% by weight of propylene glycol;
10% by weight of nonionic emulsifier;
Each of the compositions tested was applied by thermal fogging. The temperature at the outlet of the thermal fogging device was 240° C., except in the case of the compositions based on L-carvone and on CIPC, where it was 180° C.
The amount of composition which has to be applied is calculated in each case so as to obtain an equivalent concentration of active material on the potato tubers.
In this example, repeated applications were carried out by following the following protocol:
45 g/tonne of tubers at the beginning of storage;
15 g/tonne of tubers every 20 days; so that, after 6 months, 165 g of active principle have been applied per tonne of tubers.
During storage, the tubers were stored in a cold room at a temperature of 8 to 9° C.

`C=C(C)[C@H]1CC=C(C)CC1` [LIMONENE, limonene] was tested, and the “Loss in weight of the tubers” value was 4.5%, the “Total weight of the sprouts >2 mm” value was 283.8 g and the “Tubers at the white point stage” value was 1.2%. For the same molecule, the “Tubers with sprouts 2 to 5 mm” value was 8.7%, the “Tubers with sprouts <2 mm” value was 1.5% and the “Tubers with sprouts >2 mm” value was 96.8%. For the same molecule, the “Tubers with sprouts >5 mm” value was 88.1% and the Unsprouted tubers was 0.5%.
For L-carvone, the “Loss in weight of the tubers” value was 3.3%, the “Total weight of the sprouts >2 mm” value was 42.0 g and the “Tubers at the white point stage” value was 8.7%. For the same molecule, the “Tubers with sprouts 2 to 5 mm” value was 28.8%, the “Tubers with sprouts <2 mm” value was 32.3% and the “Tubers with sprouts >2 mm” value was 55.0%. The “Tubers with sprouts >5 mm” value was 26.2% and the Unsprouted tubers was 4.0%.
